Results as given in article PMC2229530 (The Journal of General Physiology, 2002).

Legend:
sodium pump [1] = target: sodium pump (Rattus norvegicus, UniProt P06685); format: cell-based
sodium pump [2] = target: sodium pump (Homo sapiens, UniProt P05023); format: cell-based; details: for Slope of replot of A versus inhibitor concentration (unprotonated pump) / Slope of replot of B versus inhibitor concentration (protonated pump): 0.3 mM rubidium; for Slope of replot of A versus inhibitor concentration (unprotonated pump): Fig. 4a; for Slope of replot of B versus inhibitor concentration (protonated pump): Fig. 4b

Sequence of sodium pump (Rattus norvegicus, UniProt P06685) (Q63377 whole entry, other chains not shown): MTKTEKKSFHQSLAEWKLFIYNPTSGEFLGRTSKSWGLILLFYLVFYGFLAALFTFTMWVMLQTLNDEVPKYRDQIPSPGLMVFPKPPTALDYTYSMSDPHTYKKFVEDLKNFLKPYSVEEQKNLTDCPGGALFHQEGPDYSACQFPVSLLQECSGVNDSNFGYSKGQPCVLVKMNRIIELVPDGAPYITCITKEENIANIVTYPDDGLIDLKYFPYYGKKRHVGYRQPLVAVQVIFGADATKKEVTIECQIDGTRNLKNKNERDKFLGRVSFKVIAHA

[H+] [protons]
Kd (sodium pump [1]; read-out: KH, proton binding to the pump in the absence of rubidium, rat pump, unloaded): 2.11 nM

[Rb] [rubidium]
Slope of replot of A versus 1/[Rb] (sodium pump [2]; human red blood cells, A normalized to y intercept 1, Fig. 2b): 1.32 ± 0.07
Slope of replot of B versus 1/[Rb] (sodium pump [2]; human red blood cells, Fig. 2b): 0.0387 ± 0.0074
KRb, kinetic constant for rubidium binding to the unprotonated pump (sodium pump [2]; human red cells, from replot of A vs 1/Rb, 37°C): 1.32 ± 0.07 mM
LRb, kinetic constant for rubidium binding to the protonated pump (sodium pump [2]; human red cells, from replot of B vs 1/Rb, 37°C): 0.0387 ± 0.0074 mM
Slope of replot of A versus 1/[Rb] (sodium pump [1]; rat red blood cells, A normalized to y intercept 1, Fig. 2a): 0.868 ± 0.101
Slope of replot of B versus 1/[Rb] (sodium pump [1]; rat red blood cells, Fig. 2a): 0.066 ± 0.0059
Fold decrease by protons of the kinetic constant / Ki (sodium pump [1]; rat red cells): ~13 fold
KRb, kinetic constant for rubidium binding to the unprotonated pump (sodium pump [1]; rat red cells, from replot of A vs 1/Rb, 37°C): 0.87 ± 0.1 mM
LRb, kinetic constant for rubidium binding to the protonated pump (sodium pump [1]; rat red cells, from replot of B vs 1/Rb, 37°C): 0.066 ± 0.006 mM

CC[N+](C)(C)Cc1ccccc1Br [bretylium]
Slope of replot of A versus inhibitor concentration (unprotonated pump) (sodium pump [2]; human red blood cells): 0.392 ± 0.078
Slope of replot of B versus inhibitor concentration (protonated pump) (sodium pump [2]; human red blood cells): 0.282 ± 0.019

N=C(N)N.O=[N+]([O-])O [guanidinium, Guanidium (guanidine) nitrate]
Slope of replot of A versus inhibitor concentration (unprotonated pump) (sodium pump [2]; human red blood cells): 0.175 ± 0.014
Slope of replot of B versus inhibitor concentration (protonated pump) (sodium pump [2]; human red blood cells): 0.016 ± 0.001

[Na+] [sodium]
Slope of replot of A versus inhibitor concentration (unprotonated pump) (sodium pump [2]; human red blood cells): 0.271 ± 0.037
Slope of replot of B versus inhibitor concentration (protonated pump) (sodium pump [2]; human red blood cells): 0.040 ± 0.006
Fold increase by protons of the kinetic constant (sodium pump [1]; rat red cells): 7.1 fold

C[C@@H]1O[C@@H](O[C@H]2C[C@@H](O)[C@]3(CO)[C@H]4[C@H](O)C[C@]5(C)[C@@H](C6=CC(=O)OC6)CC[C@]5(O)[C@@H]4CC[C@]3(O)C2)[C@H](O)[C@H](O)[C@H]1O [ouabain]
Fold decrease by protons of the kinetic constant / Ki (sodium pump [1]; rat red cells): 2.2 fold
Fold increase of the kinetic constant for protons caused by the ligand (sodium pump [1]; rat red cells): 2.2 fold
